Test systems include DMS-273; HCT-15; HL-60; HOP-62; K562; KM-20L2; Malme-3M; NCI-H23; NCI-H460; NCI-H522; OVCAR-8; RPMI-8226; SF-268; SF-295; SK-MEL-2; SNB-19; UACC-62; DU-145; MCF7; T47D.
Common to all, as to experiment: growth of human tumour cells (NCI), 48 h

12 compounds from ChEMBL document CHEMBL1201862, “PubChem BioAssay data set” (2004) can be followed below.

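96-well plates; 48 h exposure; 5 concentrations. Endpoints by linear interpolation between flanking doses. Not reached: highest tested concentration assigned. GI50 marks 50% less growth.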 Active and inactive are the calls of the source. Cut-off read from the data, not from the text of the source: active = GI50 up to about 1.1 µM and inactive = higher.

As for `O=C(Nc1cc(Cl)c(Cl)cc1Cl)C(=O)C(C(=O)c1ccc(Cl)c(Cl)c1)C1OC(=O)c2ccccc21` (centres undefined), the GI50 is 16.9 µM (inactive) in the test with DMS-273; 19.6 µM in the test on HCT-15; 18 µM (inactive) in the test on HL-60; 12.6 µM (inactive) in the test with HOP-62; 4.2 µM (inactive) with K562; 17.7 µM (inactive) in the test with KM-20L2. For the same compound, the GI50 was > 10 µM (inactive) with Malme-3M; > 10 µM (inactive) with NCI-H23; 3.07 µM (inactive) in the test with NCI-H460; 10.9 µM (inactive) in the test on NCI-H522; 10.7 µM (inactive) with OVCAR-8; 15.6 µM (inactive) in the test with RPMI-8226. For the same compound, the GI50 with SF-268 was 15.7 µM (inactive); in the test with SF-295 it was 11.9 µM (inactive); with SK-MEL-2, 14 µM (inactive); in the test on SNB-19 it was 15.5 µM (inactive); with UACC-62, 16.1 µM (inactive).
For `CC(C)(C)C1=Nc2c(Br)cc(C(C)(C)C)cc2C(C(F)(F)F)(C(F)(F)F)O1`, the GI50 is 46 µM (inactive) in the test on DMS-273; 43.7 µM with HCT-15; 22.2 µM (inactive) in the test on HL-60; > 100 µM (inactive) in the test with HOP-62; 39.4 µM (inactive) in the test on K562; > 100 µM (inactive) in the test with KM-20L2. The GI50 with Malme-3M was > 100 µM (inactive); in the test on NCI-H23 it was > 100 µM (inactive); with NCI-H460, > 100 µM (inactive); in the test with NCI-H522 it was 31.1 µM (inactive); in the test with OVCAR-8 it was 80.5 µM (inactive); in the test on RPMI-8226, 25.3 µM (inactive). For the same compound, the GI50 in the test on SF-268 is > 10 µM (inactive); with SF-295, 54.8 µM (inactive); with SK-MEL-2, > 100 µM (inactive); in the test with SNB-19, 70.8 µM (inactive); with UACC-62 it was > 100 µM (inactive).
For `O=C1C(=Cc2c(O)cc(O)cc2O)C(=O)c2ccccc21`, the GI50 is > 100 µM (inactive) with DMS-273; 19.1 µM (inactive) with DU-145; over 46.8 µM in the test with HCT-15; 16.8 µM (inactive) in the test on HL-60; > 100 µM (inactive) in the test with HOP-62; > 51.8 µM (inactive) in the test with K562. In addition, the GI50 in the test on KM-20L2 is > 43.5 µM (inactive); with Malme-3M, > 44.6 µM (inactive); in the test on NCI-H23, > 39.4 µM (inactive); in the test on NCI-H460, > 45.5 µM (inactive); with NCI-H522 it was > 46 µM (inactive); in the test on OVCAR-8, > 41.7 µM (inactive). For the same compound, the GI50 was 29 µM (inactive) with RPMI-8226; > 45.4 µM (inactive) in the test on SF-268; > 41.9 µM (inactive) in the test with SF-295; > 40.1 µM (inactive) in the test with SK-MEL-2; > 42.6 µM (inactive) in the test with SNB-19; > 40.5 µM (inactive) in the test with UACC-62.
In the case of `O=C(CC1C(=O)Nc2ccccc2S1(=O)=O)Nc1ccc(Cl)cc1` (centres undefined), the GI50 in the test with DMS-273 was 13.1 µM (inactive); in the test with HCT-15 it was 31.6 µM; with HL-60, 12.1 µM (inactive); in the test on K562 it was 18.2 µM (inactive); in the test with KM-20L2 it was > 100 µM (inactive); in the test with Malme-3M it was 22.7 µM (inactive). Besides, the GI50 was 38.9 µM (inactive) with NCI-H23; 30.3 µM (inactive) in the test with NCI-H460; 16.3 µM (inactive) with NCI-H522; 26.4 µM (inactive) in the test on OVCAR-8; 4.84 µM (inactive) in the test with RPMI-8226; 14.4 µM (inactive) with SF-268. In addition, the GI50 was 45.6 µM (inactive) in the test with SF-295, 21.1 µM (inactive) in the test with SK-MEL-2, 18.8 µM (inactive) in the test with SNB-19 and 43 µM (inactive) in the test with UACC-62.
For `CCOC(=O)C1([Se]c2ccccc2)CCCC1=O` (centres undefined), the GI50 in the test with DMS-273 is 14.4 µM (inactive); in the test with HCT-15, 13.2 µM; in the test with HL-60, 4.78 µM (inactive); with HOP-62, 96.8 µM (inactive); in the test on K562, 33.5 µM (inactive); in the test with KM-20L2, 36.6 µM (inactive). The GI50 was 32.6 µM (inactive) in the test with Malme-3M; 17.4 µM (inactive) in the test with NCI-H23; 27.9 µM (inactive) in the test on NCI-H460; 3.6 µM (inactive) in the test on NCI-H522; 16.8 µM (inactive) in the test with OVCAR-8; 23.3 µM (inactive) with RPMI-8226. Further, the GI50 is 11.7 µM (inactive) in the test with SF-268; 31.8 µM (inactive) in the test on SF-295; 32.8 µM (inactive) in the test with SK-MEL-2; 44.1 µM (inactive) in the test on SNB-19; 14.7 µM (inactive) with UACC-62.
In the case of `CC1(c2cccc(C3CC4(CCC3=O)OCCCCO4)c2)OCCO1` (centres undefined), the GI50 in the test on DMS-273 was > 100 µM (inactive); with HCT-15, over 100 µM; in the test on HL-60, > 100 µM (inactive); in the test on HOP-62, > 100 µM (inactive); with K562 it was > 100 µM (inactive); with KM-20L2, > 100 µM (inactive). For the same compound, the GI50 with Malme-3M, in the test with NCI-H23, in the test with NCI-H460, in the test with NCI-H522, in the test with OVCAR-8 and in the test with RPMI-8226 was > 100 µM (inactive) throughout. Moreover, the GI50 in the test with SF-268, with SF-295, in the test with SK-MEL-2, with SNB-19 and with UACC-62 was > 100 µM (inactive) in each case.
As for `CN1CCc2cc3c4cc2C1Cc1ccc(cc1)Oc1cc(ccc1O)CC1c2c(cc(O)c(c2O4)O3)CCN1C` (centres undefined), the GI50 is 1.75 µM (inactive) in the test on DMS-273; 1.91 µM with HCT-15; 4.65 µM (inactive) in the test with HL-60; 5.4 µM (inactive) in the test with HOP-62; 0.9 µM (active) with K562; 2.9 µM (inactive) in the test on KM-20L2. For the same compound, the GI50 with Malme-3M is 1.81 µM (inactive); in the test on NCI-H23, 3.6 µM (inactive); with NCI-H460, 1.87 µM (inactive); in the test with NCI-H522 it was 2.79 µM (inactive); in the test on OVCAR-8 it was 2.86 µM (inactive); with RPMI-8226 it was 1.64 µM (inactive). Moreover, the GI50 in the test on SF-268 is 2.16 µM (inactive); in the test on SF-295 it was 1.56 µM (inactive); with SK-MEL-2, 1.67 µM (inactive); in the test on SNB-19, 2.83 µM (inactive); in the test on UACC-62, 2.02 µM (inactive).
On to `Cc1ccc(S(=O)(=O)OCC/C(=C\[Si](C)(C)C)c2ccccc2)cc1`, for which the GI50 was > 100 µM (inactive) in the test on DMS-273; over 100 µM with HCT-15; 91 µM (inactive) in the test with HL-60; > 100 µM (inactive) in the test with HOP-62; > 100 µM (inactive) in the test with K562; > 100 µM (inactive) in the test with KM-20L2. In addition, the GI50 in the test with Malme-3M, in the test on NCI-H23, in the test on NCI-H460, in the test with NCI-H522, in the test with OVCAR-8 and with RPMI-8226 was > 100 µM (inactive) each time. Also, the GI50 with SF-268, in the test with SF-295, in the test with SK-MEL-2, in the test with SNB-19 and in the test on UACC-62 was > 100 µM (inactive) throughout.
`COc1ncn(C2C=C(CO)C(O)C2O)c(=O)n1` (centres undefined): the GI50 was > 100 µM (inactive) in the test with DMS-273; over 100 µM with HCT-15; > 100 µM (inactive) with HL-60; > 100 µM (inactive) with HOP-62; > 100 µM (inactive) in the test on K562; > 100 µM (inactive) in the test with KM-20L2. Besides, the GI50 in the test with Malme-3M, in the test with NCI-H460, in the test on NCI-H522, with OVCAR-8, with RPMI-8226 and with SF-268 was > 100 µM (inactive) throughout. In addition, the results for the GI50 with SK-MEL-2, with SNB-19 and with UACC-62 were > 100 µM (inactive), < 0.01 µM (active) and > 100 µM (inactive), respectively.
Take `CCN(CC)CCCNC(=O)c1ccc([N+](=O)[O-])cc1O`: the GI50 in the test on DMS-273 was > 100 µM (inactive); in the test on HCT-15, over 100 µM; with HL-60 it was > 100 µM (inactive); with HOP-62, > 100 µM (inactive); in the test on K562, > 100 µM (inactive); in the test with KM-20L2 it was > 100 µM (inactive). Further, the GI50 with Malme-3M, in the test on NCI-H23, with NCI-H460, with NCI-H522, in the test with OVCAR-8 and in the test on SF-268 was > 100 µM (inactive) each time. The GI50 in the test on SF-295, in the test with SK-MEL-2, with SNB-19 and in the test on UACC-62 was > 100 µM (inactive) in each case.
On to `O=C(N/N=C/c1cccc(F)c1)c1ccncc1`, for which the GI50 with DMS-273 was > 100 µM (inactive); with HCT-15 it was over 100 µM; in the test with HL-60 it was > 100 µM (inactive); with HOP-62, > 100 µM (inactive); with KM-20L2, > 100 µM (inactive); with Malme-3M it was > 100 µM (inactive). Besides, the GI50 is > 100 µM (inactive) in the test with NCI-H23; > 100 µM (inactive) in the test on NCI-H460; > 10 µM (inactive) in the test on NCI-H522; > 100 µM (inactive) in the test on RPMI-8226; > 100 µM (inactive) in the test with SF-268; > 100 µM (inactive) in the test on SF-295. Moreover, the GI50 in the test on SK-MEL-2 and in the test with SNB-19 was > 100 µM (inactive) throughout.
`COC(=O)Nc1nc2cc(C(=O)c3cccs3)ccc2[nH]1` [NOCODAZOLE]: the GI50 with DMS-273 is 0.0322 µM (active); with HCT-15, 0.0198 µM; in the test with HL-60 it was 0.0113 µM (active); in the test with HOP-62, 0.0287 µM (active); with K562, < 0.0118 µM (active); with KM-20L2, < 0.0132 µM (active). Further, the GI50 in the test on MCF7 is 0.0422 µM (active); with Malme-3M, 0.0272 µM (active); in the test on NCI-H23 it was 0.0168 µM (active); with NCI-H460, 0.0179 µM (active); in the test with OVCAR-8, 0.029 µM (active); in the test on RPMI-8226 it was < 0.0132 µM (active). Also, the GI50 is 0.0893 µM (active) in the test with SF-268; 0.0128 µM (active) with SF-295; < 0.0193 µM (active) in the test with SK-MEL-2; 0.0857 µM (active) with SNB-19; > 80.9 µM (inactive) in the test with T47D; 0.0184 µM (active) in the test on UACC-62.
